Where “and” joins values, the source holds several entries; their conditions need not be identical. Identical values can stand only once.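 Interpolation was linear, between the two tested concentrations surrounding the appropriate level; five concentrations were tested over 48 hours in 96-well plates. The concentration for 50% growth inhibition is given as GI50. The concentration for full growth arrest is given as TGI.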
Tests used:
Test in all cases: DTP human tumour cell line panel, 48 h
[1] = tested on: OVCAR-5 ovarian
[2] = tested on: NCI-H522 lung
[3] = tested on: OVCAR-4 ovarian
[4] = tested on: HCT-15 colon
[5] = tested on: IGROV1 ovarian
[6] = tested on: NCI-H23 lung
[7] = tested on: COLO 205 colon
[8] = tested on: U251 CNS
[9] = tested on: A498 renal
[10] = tested on: TK-10 renal
[11] = tested on: MOLT-4 leukemia
[12] = tested on: SF-539 CNS
[13] = tested on: MALME-3M melanoma
[14] = tested on: SNB-19 CNS
[15] = tested on: M19-MEL melanoma

SMILES: COc1ccc2c(c1)c1c(C)c3cnccc3c(C)c1n2CCCN
- GI50 [1]: 0.0946 µM
- TGI [1]: 1.12 µM and 0.542 µM
- GI50 [2]: 0.0853 µM
- TGI [2]: 0.763 µM and 0.242 µM
- GI50 [3]: 0.0161 µM
- TGI [3]: 0.394 µM and 0.143 µM
- GI50 [4]: 0.0624 µM
- TGI [4]: 0.473 µM and 0.955 µM
- GI50 [5]: 0.136 µM
- TGI [5]: 1.32 µM and 1.18 µM
- TGI [6]: 0.601 µM
- GI50 [7]: 0.0822 µM
- TGI [7]: 0.751 µM and 0.259 µM
- GI50 [8]: 0.171 µM and 0.034 µM
- TGI [8]: 0.721 µM and 0.383 µM
- GI50 [9]: 0.317 µM
- TGI [9]: 0.856 µM and 0.885 µM
- TGI [10]: 2.75 µM
- TGI [11]: 0.578 µM and 0.139 µM
- GI50 [12]: 0.175 µM
- TGI [12]: 0.855 µM and 0.421 µM
- GI50 [13]: 0.225 µM
- TGI [13]: 1.42 µM and 0.609 µM
- GI50 [14]: 0.0337 µM
- TGI [14]: 1.44 µM and 0.512 µM
- TGI [15]: 0.633 µM
